Assay [1] relates to chloroform-induced ventricular fibrillation in the mouse. The assay can be described thus: Chloroform-induced ventricular fibrillation in the mouse (effect on vagal dysfunction), without and with atropine. It counts as in vivo. Particulars: n = 10, untreated control 100%; for Proportion of fibrillation (in %) with atropine (1 mg/kg i.v.): plus atropine 1 mg/kg i.v. How it is done:
The substances were investigated using the model of chloroform-induced ventricular fibrillation in the mouse (see J. W. Lawson, Antiarrhythmic activity of some isoquinoline derivatives determined by a rapid screening procedure in the mouse; J. Pharmacol. Exp. Ther. 1968, 160, 22-31). […] After 30 minutes, the mouse was anesthetized with chloroform in a beaker. As soon as, in deep anesthesia, respiratory arrest had occurred (toxic anesthesia stage), the thorax of the animal was opened using a pair of scissors and the heartbeat was inspected visually. Here, it is possible to determine on first sight whether the heart is beating, fibrillating or arrested. The respiratory arrest triggered by chloroform leads, via absolute anoxia (lack of oxygen) in combination with a direct stimulating effect of chloroform on the sympathetic nervous system, to a potent stimulation of the sympathicus, which in turn in combination with the energy deficit in the heart caused by lack of oxygen results in fatal arrhythmia, i.e. ventricular fibrillation. This toxic chloroform anesthesia led to ventricular fibrillation in 100% of the untreated mice (control).

Assay [2] has the same test system. As to the kind of experiment: Chloroform-induced ventricular fibrillation in the mouse: combinations of compounds of the formula I with beta-receptor blockers. It counts as in vivo. The following applies: n = 30, untreated control 100%. How it is done:
The substances were investigated using the model of chloroform-induced ventricular fibrillation in the mouse (see J. W. Lawson, Antiarrhythmic activity of some isoquinoline derivatives determined by a rapid screening procedure in the mouse; J. Pharmacol. Exp. Ther. 1968, 160, 22-31). The test substance was dissolved in a mixture of dimethyl sulfoxide (DMSO) and 10% strength sodium bicarbonate solution and administered intraperitoneally (i.p.). After 30 minutes, the mouse was anesthetized with chloroform in a beaker. As soon as, in deep anesthesia, respiratory arrest had occurred (toxic anesthesia stage), the thorax of the animal was opened using a pair of scissors and the heartbeat was inspected visually. Here, it is possible to determine on first sight whether the heart is beating, fibrillating or arrested. The respiratory arrest triggered by chloroform leads, via absolute anoxia (lack of oxygen) in combination with a direct stimulating effect of chloroform on the sympathetic nervous system, to a potent stimulation of the sympathicus, which in turn in combination with the energy deficit in the heart caused by lack of oxygen results in fatal arrhythmia, i.e. ventricular fibrillation. This toxic chloroform anesthesia led to ventricular fibrillation in 100% of the untreated mice (control).
The active compounds were administered i.v. (intravenously) or i.p. (intraperitoneally). In one experiment, 10 mg/kg of 1-[[5-[2-(5-chloro-2-methoxybenzamido)ethyl]-2-methoxyphenyl]sulfonyl]-3-methylthiourea sodium salt (see Example 4; dissolved in DMSO/10% strength sodium bicarbonate solution) were combined with 0.3 mg/kg of propanolol (dissolved in distilled water), a standard beta-blocker. […] The proportion of fibrillation could be lowered further than with the individual substances, in a statistically significant manner. For comparison, a 10 times higher dose of 3 mg/kg of propanolol was used. […] In another experiment, 3 mg/kg of 1-[[5-[2-(5-tert-butyl-2-methoxybenzamido)ethyl]-2-methoxyphenyl]sulfonyl]-3-methylthiourea (Example 1) and 3 mg/kg of atenolol were combined in an analogous manner.

Setting [3] is: 3 mg/kg i.p., chloroform anesthesia after 30 minutes.

The record followed here is patent US6414030B1, “Use of benzenesulfonyl(thio)ureas for the treatment and prophylaxis of dysfunctions of the autonomous nervous system and use of benzenesulfonyl(thio)ureas in combination with beta-receptors blockers” (Aventis Pharma Deutschland, GmbH, priority 1998, dated 2002).

Marks after values point to notes of the source that are not given here.

In the case of `C[N+](C)(C)CCOC(N)=O` [carbachol, reference compound], in assay [1] (60 μg/kg i.v.), the “Proportion of fibrillation (in %) without atropine” value was 60%# and the “Proportion of fibrillation (in %) with atropine (1 mg/kg i.v.)” value came to 100%*.
For `CNC(=S)NS(=O)(=O)c1cc(CCNC(=O)c2cc(C(C)(C)C)ccc2OC)ccc1OC` [Example 1, 1-[[5-[2-(5-tert-Butyl-2-methoxybenzamido)ethyl]-2-methoxyphenyl]sulfonyl]-3-methylthiourea], the “Proportion of fibrillation in %” value in assay [2] (single substance 3 mg/kg i.p.) was determined as 53%*. Further, the “Proportion of fibrillation (in %) without atropine” value in assay [1] (setting [3]) came to 30%#. Also, the “Proportion of fibrillation (in %) with atropine (1 mg/kg i.v.)” value in assay [1] (3 mg/kg i.p.) is on record as 90%*.
On to `CNC(=O)Oc1ccc2c(c1)[C@]1(C)CCN(C)[C@@H]1N2C` [physostigmine, reference compound], for which, in assay [1] (1 mg/kg s.c.), the “Proportion of fibrillation (in %) without atropine” value was 70%# and the “Proportion of fibrillation (in %) with atropine (1 mg/kg i.v.)” value came to 100%*.
For `CNC(=S)NS(=O)(=O)c1cc(CCNC(=O)c2cc(Cl)ccc2OC)ccc1OCCOC` [Example 5, 1-[[5-[2-(5-Chloro-2-methoxybenzamido)ethyl]-2-(2-methoxyethoxy)phenyl]sulfonyl]-3-methylthiourea], in assay [1] (10 mg/kg i.p.), the “Proportion of fibrillation (in %) without atropine” value was 60%# and the “Proportion of fibrillation (in %) with atropine (1 mg/kg i.v.)” value was 100%*.
Take `CC(C)NCC(O)COc1cccc2ccccc12` (stereo not drawn) [propranolol]: the “Proportion of fibrillation in %” value in assay [2] (single substance 0.3 mg/kg i.v.) was determined as 37%*; in assay [2] (single substance 3 mg/kg i.v.) it was 17%*.
As for `CC(C)NCC(O)COc1ccc(CC(N)=O)cc1` (stereo not drawn) [atenolol], the “Proportion of fibrillation in %” value in assay [2] (single substance 3 mg/kg i.v.) is recorded as 48%*.
With `CNC(=S)NS(=O)(=O)c1cc(CCNC(=O)c2cc(Cl)ccc2OC)ccc1OC.[Na]` [1-[[5-[2-(5-chloro-2-methoxybenzamido)ethyl]-2-methoxyphenyl]sulfonyl]-3-methylthiourea sodium salt], in assay [2] (single substance 10 mg/kg i.v.), the “Proportion of fibrillation in %” value amounted to 50%*. In assay [1] (10 mg/kg i.p.), the “Proportion of fibrillation (in %) without atropine” value is on record as 50%# and the “Proportion of fibrillation (in %) with atropine (1 mg/kg i.v.)” value is 90%*.
As for `CNC(=S)NS(=O)(=O)c1cc(CCNC(=O)c2cc(C(C)C)ccc2OC)ccc1OC` [Example 3, 1-[[5-[2-(5-lsopropyl-2-methoxybenzamido)ethyl]-2-methoxyphenyl]sulfonyl]-3-methylthiourea], in assay [1] (setting [3]), the “Proportion of fibrillation (in %) without atropine” value was found to be 60%#.
Take `CNC(=O)NS(=O)(=O)c1cc(CCNC(=O)c2cc(C(C)(C)C)ccc2OC)ccc1OC` [Example 2, 1-[[5-[2-(5-tert-Butyl-2-methoxybenzamido)ethyl]-2-methoxyphenyl]sulfonyl]-3-methylurea]: in assay [1] (1 mg/kg i.p.), the “Proportion of fibrillation (in %) without atropine” value was found to be 60%# and the “Proportion of fibrillation (in %) with atropine (1 mg/kg i.v.)” value is recorded as 100%*.
